Patent US12459934B2, “Pesticidal compounds” (BASF SE, priority 2018, dated 2025)

What was measured:
Format in all cases: in vivo
[1] = system: Southern Armyworm (Spodoptera eridania), 2nd Instar Larvae; assay: Southern armyworm 2nd instar larvae on sprayed lima bean plants; conditions: 96 h, 4 days after treatment, read-out: mortality in comparison with untreated controls
Method: The active compounds were formulated in cyclohexanone as a 10,000 ppm solution supplied in tubes. The tubes were inserted into an automated electrostatic sprayer equipped with an atomizing nozzle and they served as stock solutions for which lower dilutions were made in 50% acetone:50% water (v/v). A nonionic surfactant (Kinetic®) was included in the solution at a volume of 0.01% (v/v).
Lima bean plants (variety Sieva) were grown 2 plants to a pot and selected for treatment at the 1st true leaf stage. Test solutions were sprayed onto the foliage by an automated electrostatic plant sprayer equipped with an atomizing spray nozzle. The plants were dried in the sprayer fume hood and then removed from the sprayer. Each pot was placed into perforated plastic bags with a zip closure. About 10 to 11 armyworm larvae were placed into the bag and the bags zipped closed. Test plants were maintained in a growth room at about 25° C. and about 20-40% relative humidity for 4 days, avoiding direct exposure to fluorescent light (24 hour photoperiod) to prevent trapping of heat inside the bags. Mortality and reduced feeding were assessed 4 days after treatment, compared to untreated control plants.

[2] = system: boll weevil (Anthonomus grandis); assay: Boll weevil control, 96-well microtiter plate with insect diet and eggs; conditions: 120 h, sprayed onto insect diet, assessed after 5 days, read-out: mortality in comparison with untreated controls (egg and larval mortality)
Method: For evaluating control of boll weevil (Anthonomus grandis) the test unit consisted of 96-well-microtiter plates containing an insect diet and 5-10 A. grandis eggs.
The compounds were formulated using a solution containing 75% v/v water and 25% v/v DMSO. Different concentrations of formulated compounds were sprayed onto the insect diet at 5 μl, using a custom built micro atomizer, at two replications.
After application, microtiter plates were incubated at about 25±1° C. and about 75±5% relative humidity for 5 days. Egg and larval mortality was then visually assessed.

[3] = system: tobacco budworm (Heliothis virescens); assay: Tobacco budworm control, 96-well microtiter plate with insect diet and eggs; conditions: 120 h, sprayed onto insect diet, assessed after 5 days, read-out: mortality in comparison with untreated controls (egg and larval mortality)
Method: For evaluating control of tobacco budworm (Heliothis virescens) the test unit consisted of 96-well-microtiter plates containing an insect diet and 15-25 H. virescens eggs.
The compounds were formulated using a solution containing 75% v/v water and 25% v/v DMSO. Different concentrations of formulated compounds were sprayed onto the insect diet at 10 μl, using a custom built micro atomizer, at two replications.
After application, microtiter plates were incubated at about 28±1° C. and about 80±5% relative humidity for 5 days. Egg and larval mortality was then visually assessed.

[4] = system: Western Flower Thrips (Frankliniella occidentalis); assay: Western flower thrips on leaf discs of sprayed cotton plants; conditions: foliar, 48 h, 2 DAT (days after treatment), read-out: mortality in comparison with untreated controls
Method: The active compounds were formulated by a Tecan liquid handler in 100% cyclohexanone as a 10,000 ppm solution supplied in tubes. The 10,000 ppm solution was serially diluted in 100% cyclohexanone to make interim solutions. These served as stock solutions for which final dilutions were made by the Tecan in 50% acetone:50% water (v/v) into 10 or 20 ml glass vials. A nonionic surfactant (Kinetic®) was included in the solution at a volume of 0.01% (v/v). The vials were then inserted into an automated electrostatic sprayer equipped with an atomizing nozzle for application to plants/insects.
Small (˜2″ in height) cotton plants are sprayed with test compounds at concentrations ranging from 300 to 0.01 ppm in acetone/water through the automated VPS. After drying, cotton leaves are removed and circular leaf discs (−1 cm diameter) are punched from the treated surface and transferred to clean 20 mL scintillation vials. Ten Western flower thrips (FRANOC) are aspirated into each scintillation vial. The vials with the leaf discs and thrips are kept in an upright incubator at 25° C. and 50% relative humidity with a 14:10 light:dark photoperiod. Each treatment is replicated twice.
Thrips mortality is assessed at 2 DAT (days after treatment), counting all thrips both dead and alive. [The average absolute mortality is calculated for each treatment.]

[5] = system: Diamond Back Moth (Plutella xylostella); assay: Diamond back moth, cabbage leaf dip test; conditions: foliar, 3rd instar larvae, 72 hours after treatment, read-out: mortality in comparison with untreated controls
Method: The active compound is dissolved at the desired concentration in a mixture of 1:1 (vol:vol) distilled water:acetone. Surfactant (Alkamuls® EL 620) is added at a rate of 0.1% (vol/vol). The test solution is prepared at the day of use.
Leaves of cabbage were dipped in test solution and air-dried. Treated leaves were placed in petri dish enlined with moist filter paper and inoculated with ten 3rd instar larvae. Mortality was recorded 72 hours after treatment. Feeding damages were also recorded using a scale of 0-100%.

[6] = system: Orchid Thrips (Dichromothrips corbetti); assay: Orchid thrips, floral-immersion technique; conditions: dipped orchid petals, adult thrips, 72 hours after treatment, read-out: mortality in comparison with untreated controls
Method: Dichromothrips corbetti adults used for bioassay were obtained from a colony maintained continuously under laboratory conditions. For testing purposes, the test compound is diluted in a 1:1 mixture of acetone:water (vol:vol), plus Kinetic® HV at a rate of 0.01% v/v.
Thrips potency of each compound was evaluated by using a floral-immersion technique. All petals of individual, intact orchid flowers were dipped into treatment solution and allowed to dry in Petri dishes. Treated petals were placed into individual re-sealable plastic along with about 20 adult thrips. All test arenas were held under continuous light and a temperature of about 28° C. for duration of the assay. After 3 days, the numbers of live thrips were counted on each petal. The percent mortality was recorded 72 hours after treatment.

[7] = system: yellow fever mosquito (Aedes aegypti); assay: whole plant or invertebrate; conditions: 48 h, freshly hatched larvae in tap water, assessed after 2 days, read-out: mortality in comparison with untreated controls (larval mortality)
Method: For evaluating control of yellow fever mosquito (Aedes aegypti) the test unit consisted of 96-well-microtiter plates containing 200 μl of tap water per well and 5-15 freshly hatched A. aegypti larvae. The active compounds were formulated using a solution containing 75% (v/v) water and 25% (v/v) DMSO. Different concentrations of formulated compounds or mixtures were sprayed onto the insect diet at 2.5 μl, using a custom built micro atomizer, at two replications.
After application, microtiter plates were incubated at 28+1° C., 80+5% RH for 2 days. Larval mortality was then visually assessed.

[8] = system: Silverleaf Whitefly (Bemisia argentifolii) (Adults); assay: Silverleaf whitefly adults on sprayed cotton plants; conditions: 72 h, 3 days after treatment, read-out: mortality in comparison with untreated controls
Description: The active compounds were formulated in cyclohexanone as a 10,000 ppm solution supplied in tubes. The tubes were inserted into an automated electrostatic sprayer equipped with an atomizing nozzle and they served as stock solutions for which lower dilutions were made in 50% acetone:50% water (v/v). A non-ionic surfactant (Kinetic®) was included in the solution at a volume of 0.01% (v/v).
Cotton plants at the cotyledon stage (one plant per pot) were sprayed by an automated electrostatic plant sprayer equipped with an atomizing spray nozzle. The plants were dried in the sprayer fume hood and then removed from the sprayer. Each pot was placed into a plastic cup and about 10 to 12 whitefly adults (approximately 3-5 days old) were introduced. The insects were collected using an aspirator and a nontoxic Tygon® tubing connected to a barrier pipette tip. The tip, containing the collected insects, was then gently inserted into the soil containing the treated plant, allowing insects to crawl out of the tip to reach the foliage for feeding. Cups were covered with a reusable screened lid. Test plants were maintained in a growth room at about 25° C. and about 20-40% relative humidity for 3 days, avoiding direct exposure to fluorescent light (24-hour photoperiod) to prevent trapping of heat inside the cup. Mortality was assessed 3 days after treatment, compared to untreated control plants.

CC(C)c1ccccc1NC(=S)N/N=C/c1ccc2c(C(=O)Nc3ccc(OC(F)(F)F)cc3)nccc2c1 [Compound C-1, 6-[(E)-[(2-isopropylphenyl)carbamothioylhydrazono]methyl]-N-[4-(trifluoromethoxy)phenyl]isoquinoline-1-carboxamide]
> 75%: mortality at 300 ppm [1] | mortality at 800 ppm [2] | mortality at 800 ppm [3] | mortality at 300 ppm [4] | mortality at 300 ppm [5] | mortality at 300 ppm [6] | mortality at 800 ppm [7]

CC(C)c1ccccc1N1C(=O)CS/C1=N\N=C\c1ccc2c(C(=O)Nc3ccc(OC(F)(F)F)cc3)nccc2c1 [Compound C-2, 6-[(E)-[(Z)-[3-(2-isopropylphenyl)-4-oxo-thiazolidin-2-ylidene]hydrazono]methyl]-N-[4-(trifluoromethoxy)phenyl]isoquinoline-1-carboxamide]
> 75%: mortality at 300 ppm [1] | mortality at 300 ppm [8] | mortality at 800 ppm [2] | mortality at 800 ppm [3] | mortality at 300 ppm [4] | mortality at 300 ppm [5] | mortality at 300 ppm [6] | mortality at 800 ppm [7]
